Test results from ChEMBL document CHEMBL1152254, “Synthesis, biological evaluation, and molecular modeling investigation of chiral 2-(4-chloro-phenoxy)-3-phenyl-propanoic acid derivatives with PPARalpha and PPARgamma agonist activity” (Bioorg Med Chem, 2008).
Calls of active or inactive are those of the source. The rule behind the calls is not given here.

Legend:
Format in all cases: cell-based
[1] = target: T1, Peroxisome proliferator-activated receptor alpha (Homo sapiens, UniProt Q07869); experiment: (§1) Agonist activity at human PPARalpha ligand binding domain expressed in human HepG2 cells co-transfected with Gal4 by luciferase reporter gene assay
T1 sequence (Q07869 whole entry): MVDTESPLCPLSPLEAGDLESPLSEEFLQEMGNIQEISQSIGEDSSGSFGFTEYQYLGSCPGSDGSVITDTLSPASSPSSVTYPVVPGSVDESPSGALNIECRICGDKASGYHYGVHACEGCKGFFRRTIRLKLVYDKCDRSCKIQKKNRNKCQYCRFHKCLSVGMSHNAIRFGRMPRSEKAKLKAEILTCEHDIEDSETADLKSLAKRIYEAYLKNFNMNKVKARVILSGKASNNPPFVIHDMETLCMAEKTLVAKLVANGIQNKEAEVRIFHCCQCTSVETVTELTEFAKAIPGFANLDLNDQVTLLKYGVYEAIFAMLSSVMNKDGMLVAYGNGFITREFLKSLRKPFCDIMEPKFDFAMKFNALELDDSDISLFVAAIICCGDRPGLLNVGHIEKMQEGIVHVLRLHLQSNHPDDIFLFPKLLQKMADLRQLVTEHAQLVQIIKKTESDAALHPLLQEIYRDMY

[2] = target: T2, Peroxisome proliferator-activated receptor gamma (Homo sapiens, UniProt P37231); experiment: (§2) Agonist activity at human PPARgamma ligand binding domain expressed in human HepG2 cells co-transfected with Gal4 by luciferase reporter gene assay
T2 sequence (P37231 whole entry): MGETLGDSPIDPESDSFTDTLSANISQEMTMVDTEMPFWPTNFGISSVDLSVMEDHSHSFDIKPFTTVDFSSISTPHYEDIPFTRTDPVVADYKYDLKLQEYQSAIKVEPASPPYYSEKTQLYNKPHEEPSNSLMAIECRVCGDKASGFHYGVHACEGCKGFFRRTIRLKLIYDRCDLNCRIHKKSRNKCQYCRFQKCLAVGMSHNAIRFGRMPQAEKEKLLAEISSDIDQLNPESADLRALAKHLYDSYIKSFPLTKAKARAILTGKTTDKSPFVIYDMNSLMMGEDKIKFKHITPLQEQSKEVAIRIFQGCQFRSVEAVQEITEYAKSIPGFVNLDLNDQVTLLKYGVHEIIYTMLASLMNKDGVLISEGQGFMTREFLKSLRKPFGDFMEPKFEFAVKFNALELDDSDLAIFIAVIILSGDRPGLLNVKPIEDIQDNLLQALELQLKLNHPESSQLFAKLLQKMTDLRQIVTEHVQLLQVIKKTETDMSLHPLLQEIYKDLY

[3] = target: T3, Peroxisome proliferator-activated receptor alpha (Homo sapiens) (UniProt Q07869); experiment: Agonist activity at human PPARalpha ligand binding domain expressed in human HepG2 cells co-transfected with Gal4 by luciferase reporter gene assay relative to Wy-14,643
T3 sequence (whole entry): T1 sequence (Q07869 whole entry)

[4] = target: T3, Peroxisome proliferator-activated receptor alpha (Homo sapiens); experiment: as §1
[5] = target: T4, Peroxisome proliferator-activated receptor gamma (Homo sapiens) (UniProt P37231); experiment: as §2
T4 sequence (whole entry): T2 sequence (P37231 whole entry)

SMILES	EC50 [1]	EC50 [2]	Efficacy [3]	Activity [4]	Activity [5]	Activity [3]
CCCCCCc1ccc(CC(Oc2ccc(Cl)cc2)C(=O)O)cc1 (stereo not drawn)	450 nM	–	56%	–	–	–
CCCc1ccc(CC(Oc2ccc(Cl)cc2)C(=O)O)cc1 (stereo not drawn)	350 nM	1390 nM	39%	–	–	–
O=C(O)C(Cc1ccccc1)Oc1ccc(Cl)cc1Br (racemic)	1650 nM	–	41%	–	–	–
Cc1cc(Cl)cc(C)c1OC(Cc1ccccc1)C(=O)O (racemic)	–	–	–	inactive	inactive	inactive
O=C(O)C(Cc1ccccc1)Oc1ccc(Cl)cc1Cl (racemic)	2120 nM	–	50%	–	–	–
O=C(O)[C@H](Cc1ccc(-c2cccs2)cc1)Oc1ccc(Cl)cc1	65 nM	590 nM	71%	–	–	–
O=C(O)C(Cc1ccc(Cl)cc1)Oc1ccc(Cl)cc1 (racemic)	2230 nM	3160 nM	49%	–	–	–
O=C(O)C(Cc1ccccc1)Oc1ccc(Cl)cc1-c1ccccc1 (racemic)	–	–	–	inactive	inactive	inactive
O=C(O)C(Cc1ccccc1)Oc1c(Cl)cc(Cl)cc1Cl (racemic)	–	–	–	inactive	inactive	inactive
Cc1cccc(Nc2cc(Cl)nc(SCC(=O)O)n2)c1C	–	–	–	inactive	–	inactive
Cc1cccc(C)c1CC(Oc1ccc(Cl)cc1)C(=O)O (racemic)	–	–	–	inactive	inactive	inactive
O=C(O)C(Cc1ccc(Br)cc1)Oc1ccc(Cl)cc1 (racemic)	1100 nM	2070 nM	46%	–	–	–
CN(CCOc1ccc(CC2SC(=O)NC2=O)cc1)c1ccccn1 (stereo not drawn)	–	–	100%	–	inactive	–
O=C(O)C(Cc1cccc(Oc2ccccc2)c1)Oc1ccc(Cl)cc1 (racemic)	240 nM	3060 nM	57%	–	–	–
O=C(O)C(Cc1ccccc1)Oc1ccc(Cl)c(Cl)c1 (racemic)	4490 nM	2550 nM	27%	–	–	–
O=C(O)C(Cc1c(Cl)cccc1Cl)Oc1ccc(Cl)cc1 (racemic)	–	–	–	inactive	inactive	inactive
Cc1cc(Cl)ccc1OC(Cc1ccccc1)C(=O)O (racemic)	–	–	34%	–	–	–
O=C(O)[C@@H](Cc1ccc(Oc2ccccc2)cc1)Oc1ccc(Cl)cc1	700 nM	11300 nM	15%	–	–	–
CCCc1cc(Cl)ccc1OC(Cc1ccccc1)C(=O)O (stereo not drawn)	–	–	18%	–	–	–
O=C(O)[C@H](Cc1ccc(-c2ccccc2)cc1)Oc1ccc(Cl)cc1	49 nM	1120 nM	70%	–	–	–
O=C(O)C(Cc1ccc(Oc2ccccc2)cc1)Oc1ccc(Cl)cc1 (racemic)	64 nM	1060 nM	58%	–	–	–
CCCCCCc1cc(Cl)ccc1OC(Cc1ccccc1)C(=O)O (racemic)	–	–	–	inactive	inactive	inactive
O=C(O)[C@H](Cc1ccc(Oc2ccccc2)cc1)Oc1ccc(Cl)cc1	27 nM	870 nM	68%	–	–	–

Results, then the molecule that gave them:

EC50 [1]	EC50 [2]	Efficacy [3]	Activity [4]	Activity [5]	Activity [3]	SMILES
9250 nM	8540 nM	50%	–	–	–	Cc1ccccc1CC(Oc1ccc(Cl)cc1)C(=O)O (racemic)
–	–	–	inactive	inactive	inactive	O=C(O)C(Cc1ccccc1-c1ccccc1)Oc1ccc(Cl)cc1 (stereo not drawn)
2250 nM	2480 nM	57%	–	–	–	O=C(O)C(Cc1ccccc1Br)Oc1ccc(Cl)cc1 (racemic)
2180 nM	2230 nM	44%	–	–	–	O=C(O)C(Cc1ccccc1Cl)Oc1ccc(Cl)cc1 (racemic)
1140 nM	–	40%	–	inactive	–	O=C(O)C(Cc1ccccc1Oc1ccccc1)Oc1ccc(Cl)cc1 (racemic)
420 nM	3650 nM	69%	–	–	–	O=C(O)[C@H](Cc1ccc(C(F)(F)F)cc1)Oc1ccc(Cl)cc1
14500 nM	7940 nM	48%	–	–	–	O=C(O)[C@H](Cc1ccccc1)Oc1ccc(Cl)cc1
1430 nM	3680 nM	43%	–	–	–	CCCc1ccccc1CC(Oc1ccc(Cl)cc1)C(=O)O (stereo not drawn)
2810 nM	4360 nM	53%	–	–	–	Cc1ccc(CC(Oc2ccc(Cl)cc2)C(=O)O)cc1 (racemic)
–	–	–	inactive	inactive	inactive	CCCCCCc1ccccc1CC(Oc1ccc(Cl)cc1)C(=O)O (stereo not drawn)
2490 nM	4030 nM	43%	–	–	–	O=C(O)C(Cc1ccccc1C(F)(F)F)Oc1ccc(Cl)cc1 (racemic)
